# Measurements as given in article PMC8308585, “Design and Synthesis of Novel Thiazolo[5,4-d]pyrimidine Derivatives with High Affinity for Both the Adenosine A1 and A2A Receptors, and Efficacy in Animal Models of Depression” (Pharmaceuticals, 2021).
# Like-named read-outs stand apart in the source and are kept apart here.
# Columns and labels:
# human A1 AR = target: T1, human A1 AR (Homo sapiens, UniProt P30542); test: Radioligand binding, displacement of [3H]-CCPA at hA1 AR in CHO cells; settings: displacement of specific [3H]-CCPA binding, n = 3–6, mean ± SEM
# T1 construct: expressed in transfected cells; host or cells: CHO cells
# T1 sequence (P30542 1-326): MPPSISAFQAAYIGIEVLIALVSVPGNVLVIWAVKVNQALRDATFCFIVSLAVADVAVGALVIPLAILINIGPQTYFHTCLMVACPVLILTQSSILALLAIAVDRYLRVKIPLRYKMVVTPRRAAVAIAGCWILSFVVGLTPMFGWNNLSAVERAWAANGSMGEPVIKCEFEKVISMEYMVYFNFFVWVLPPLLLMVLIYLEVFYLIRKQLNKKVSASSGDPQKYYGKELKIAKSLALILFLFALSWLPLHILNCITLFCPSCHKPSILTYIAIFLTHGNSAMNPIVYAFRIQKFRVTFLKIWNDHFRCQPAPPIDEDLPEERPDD
# Experimental: (§2) CHO cells, stably expressing hARs, were grown adherently and maintained in Dulbecco’s modified Eagle’s medium (DMEM) with nutrient mixture F12 supplemented with 10% fetal bovine serum (FBS), penicillin (100 µg/mL), streptomycin (100 µg/mL), sodium pyruvate (1 mM), and geneticin (0.1 mg/mL).
# (§3) Briefly, cells were homogenized in cold lysis buffer (5 mM Tris HCl, 2 mM EDTA, pH 7.4), centrifuged at low speed spin for 10 min, and subsequently, the supernatant was spun at 37,000 rpm. Membrane pellet was resuspended in the specific buffer and stored at −80 °C.
# human A2A AR = target: T2, human A2A AR (Homo sapiens, UniProt P29274); test: Radioligand binding, displacement of [3H]-NECA at hA2A AR in CHO cells;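 also: competition binding on membranes from CHO cells stably transfected with human A2A receptor, binding curves fitted by nonlinear regression in GraphPad Prism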
# T2 construct: expressed in transfected cells; host or cells: CHO cells
# Experimental: as §2, §3
# hA3 AR = target: T3, hA3 AR (Homo sapiens, UniProt P0DMS8); test: Radioligand binding, displacement of [3H]-HEMADO at hA3 AR in CHO cells; settings: displacement of specific [3H]-HEMADO binding, mean ± SEM
# T3 construct: expressed in transfected cells; host or cells: CHO cells
# T3 sequence (P0DMS8 1-318): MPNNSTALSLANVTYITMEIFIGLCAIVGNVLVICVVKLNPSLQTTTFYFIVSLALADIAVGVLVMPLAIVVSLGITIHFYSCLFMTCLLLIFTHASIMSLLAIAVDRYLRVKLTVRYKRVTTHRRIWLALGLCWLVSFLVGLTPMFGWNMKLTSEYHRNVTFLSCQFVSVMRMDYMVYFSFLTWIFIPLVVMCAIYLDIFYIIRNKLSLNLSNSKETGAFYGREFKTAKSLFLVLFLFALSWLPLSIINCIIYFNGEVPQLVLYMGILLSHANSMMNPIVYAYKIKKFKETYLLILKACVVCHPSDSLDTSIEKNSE
# Experimental: as §2, §3
# hA2B AR = target: T4, hA2B AR (Homo sapiens, UniProt P29275); test: Inhibition of NECA-stimulated adenylyl cyclase activity (cAMP) in CHO cells expressing hA2B AR; type: cell-based; settings: mean ± SEM
# T4 construct: expressed in transfected cells; host or cells: CHO cells
# T4 sequence (P29275 1-332): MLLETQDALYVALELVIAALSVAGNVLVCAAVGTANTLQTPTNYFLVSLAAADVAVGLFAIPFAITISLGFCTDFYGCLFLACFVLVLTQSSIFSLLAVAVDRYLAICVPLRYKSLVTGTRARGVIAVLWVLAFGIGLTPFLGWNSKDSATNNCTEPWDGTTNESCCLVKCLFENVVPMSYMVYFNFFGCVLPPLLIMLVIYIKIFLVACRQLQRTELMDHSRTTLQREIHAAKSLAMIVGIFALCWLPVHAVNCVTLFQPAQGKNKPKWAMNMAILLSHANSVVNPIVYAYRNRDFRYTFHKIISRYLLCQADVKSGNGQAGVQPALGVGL
# Experimental: Compounds 1–19 were evaluated for their binding affinity at hA1, hA2A, and hA3 ARs, stably transfected in Chinese hamster ovary (CHO) cells. […].
# The binding affinity of the novel compounds was evaluated using radioligand competition experiments in CHO cells stably transfected with hA1 AR, hA2A AR, and hA3 AR subtypes. […]; The potency at hA2B AR, expressed on CHO cells, was determined by inhibition of NECA-stimulated adenylyl cyclase activity. […]
# (§1) Binding data and concentration–response curves were fitted by a nonlinear regression with the Prism program (GraphPAD Prism 7 Software, San Diego, CA, USA). Each concentration was tested 3–5 times in duplicate and the Ki or IC50 (the concentration of antagonists that produces 50% inhibition of the agonist effect) values are given as the mean ± standard error (S.E.).
# hA2A AR = target: T5, hA2A AR (Homo sapiens, UniProt P29274); test: Inhibition of NECA-induced increase of cAMP in CHO cells expressing hA2A AR (GloSensor cAMP assay); type: cell-based; settings: inhibition of NECA-stimulated adenylyl cyclase activity, mean ± standard error
# T5 construct: expressed in transfected cells; host or cells: CHO cells
# Experimental: Compound 18 was also tested to evaluate its antagonist behavior at the hA1 AR by assessing its ability to counteract NECA-induced decrease of cAMP accumulation.
# The intrinsic activity of understudy compounds was evaluated through the GloSensor cAMP assay, as described previously. Briefly, cells stably expressing the hA1, hA2A, and hA2B ARs and the biosensor were incubated for 2 h at rt in equilibration medium containing 3% v/v GloSensor cAMP reagent stock solution, 10% FBS, and 87% CO2 independent medium. Afterward, cells were dispensed in the wells of a 384-well plate and the reference agonist NECA or the compounds, at different concentrations, were tested. The antagonist profile of compounds was evaluated by assessing their ability to counteract NECA-induced increase (A2A and A2B ARs) or decrease (A1 AR) of cAMP accumulation. Responses were expressed as percentage of the maximal relative luminescence units (RLU).
# as §1
# [1] = displacement of specific [3H]-NECA binding, CHO cells, mean ± SEM, read-out: hA2A Ki
# [2] = hA2A AR, as listed in Table 3, read-out: pKi A2A (converted)
# T2 sequence (P29274 whole entry): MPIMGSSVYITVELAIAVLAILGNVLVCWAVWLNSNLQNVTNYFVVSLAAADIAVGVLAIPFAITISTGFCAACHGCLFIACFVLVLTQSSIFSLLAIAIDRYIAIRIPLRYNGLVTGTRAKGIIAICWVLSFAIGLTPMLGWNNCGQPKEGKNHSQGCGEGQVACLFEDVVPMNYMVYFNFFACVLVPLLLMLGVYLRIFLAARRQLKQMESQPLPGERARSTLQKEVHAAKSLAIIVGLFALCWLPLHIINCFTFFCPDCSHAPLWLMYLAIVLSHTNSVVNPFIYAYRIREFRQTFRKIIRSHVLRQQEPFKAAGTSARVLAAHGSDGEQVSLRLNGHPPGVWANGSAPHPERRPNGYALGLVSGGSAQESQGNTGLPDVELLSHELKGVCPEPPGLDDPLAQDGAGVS
# T5 sequence (P29274 whole entry): as above
Ki (human A1 AR) [nM],Ki (human A2A AR; [1]) [nM],Ki (human A2A AR; [2]) [nM],Ki (hA3 AR) [nM],IC50 (hA2B AR) [nM],IC50 (hA2A AR) [nM],SMILES
20 ± 4.3,2.9 ± 0.04,2.82,26.6 ± 6,> 30000,–,"Nc1nc(-c2ccccc2)nc2sc(Cc3ccccc3)nc12 [compound 1, 2-Benzyl-5-phenylthiazolo[5,4-d]pyrimidin-7-amine]"
51.7 ± 11.7,4.6 ± 0.9,–,76 ± 0.9,> 30000,–,"N#Cc1cccc(-c2nc(N)c3nc(Cc4ccccc4)sc3n2)c1 [compound 2, 3-(7-Amino-2-benzylthiazolo[5,4-d]pyrimidin-5-yl)benzonitrile]"
15.7 ± 3.4,7.3 ± 1,–,104 ± 21.1,> 30000,–,"Nc1nc(-c2cccc(O)c2)nc2sc(Cc3ccccc3)nc12 [compound 3, 3-(7-Amino-2-benzylthiazolo[5,4-d]pyrimidin-5-yl)phenol]"
15.5 ± 3.6,1.1 ± 0.2,1.1,65.4 ± 12,794 ± 196,–,"Nc1nc(-c2ccco2)nc2sc(Cc3ccccc3)nc12 [compound 4, 2-Benzyl-5-(furan-2-yl)thiazolo[5,4-d]pyrimidin-7-amine]"
6.8 ± 1.2,0.8 ± 0.04,0.794,18.8 ± 1.9,1100 ± 228,88 ± 21,"Cc1ccc(-c2nc(N)c3nc(Cc4ccccc4)sc3n2)o1 [compound 5, 2-Benzyl-5-(5-methylfuran-2-yl)thiazolo[5,4-d]pyrimidin-7-amine]"
2.8 ± 0.05,0.4 ± 0.04,0.398,143 ± 0.2,> 30000,–,"Nc1nc(-c2ccccc2)nc2sc(Cc3ccccc3Cl)nc12 [compound 6, 2-(2-Chlorobenzyl)-5-phenylthiazolo[5,4-d]pyrimidin-7-amine]"
72.8 ± 15,6.3 ± 0.18,–,295.1 ± 0.6,6785 ± 62,–,"N#Cc1cccc(-c2nc(N)c3nc(Cc4ccccc4Cl)sc3n2)c1 [compound 7, 3-(7-Amino-2-(2-chlorobenzyl)thiazolo[5,4-d]pyrimidin-5-yl)benzonitrile]"
3.8 ± 0.6,0.2 ± 0.03,0.2,4786 ± 5.1,1890 ± 175,39 ± 9,"Nc1nc(-c2ccco2)nc2sc(Cc3ccccc3Cl)nc12 [compound 8, 2-(2-Chlorobenzyl)-5-(furan-2-yl)thiazolo[5,4-d]pyrimidin-7-amine]"
0.5 ± 0.1,0.07 ± 0.006,0.0708,8.5 ± 1.6,8850 ± 1450,7.7 ± 1.3,"Cc1ccc(-c2nc(N)c3nc(Cc4ccccc4Cl)sc3n2)o1 [compound 9, 2-(2-Chlorobenzyl)-5-(5-methylfuran-2-yl)thiazolo[5,4-d]pyrimidin-7-amine]"
4.5 ± 0.8,0.7 ± 0.1,–,37.4 ± 1,> 30000,125 ± 33,"COc1ccccc1Cc1nc2c(N)nc(-c3ccccc3)nc2s1 [compound 10, 2-(2-Methoxybenzyl)-5-phenylthiazolo[5,4-d]pyrimidin-7-amine]"
28.4 ± 4,2.4 ± 0.09,–,54.2 ± 1.2,1540 ± 35,–,"COc1ccccc1Cc1nc2c(N)nc(-c3cccc(C#N)c3)nc2s1 [compound 11, 3-(7-Amino-2-(2-methoxybenzyl)thiazolo[5,4-d]pyrimidin-5-yl)benzonitrile]"
10.2 ± 0.3,1.9 ± 0.4,–,79.6 ± 2.3,7420 ± 876,–,"COc1ccccc1Cc1nc2c(N)nc(-c3cccc(O)c3)nc2s1 [compound 12, 3-(7-Amino-2-(2-methoxybenzyl)thiazolo[5,4-d]pyrimidin-5-yl)phenol]"
2.4 ± 0.1,0.2 ± 0.03,–,48.6 ± 2.4,1540 ± 35,35 ± 8.5,"COc1ccccc1Cc1nc2c(N)nc(-c3ccco3)nc2s1 [compound 13, 5-(Furan-2-yl)-2-(2-methoxybenzyl)thiazolo[5,4-d]pyrimidin-7-amine]"
11.5 ± 2.8,2 ± 0.6,–,18.2 ± 5,2420 ± 545,–,"COc1ccccc1Cc1nc2c(N)nc(-c3ccc(C)o3)nc2s1 [compound 14, 2-(2-Methoxybenzyl)-5-(5-methylfuran-2-yl)thiazolo[5,4-d]pyrimidin-7-amine]"
1.9 ± 0.05,1.8 ± 0.6,1.78,72.1 ± 5.3,> 30000,–,"Nc1nc(-c2ccccc2)nc2sc(Cc3ccccc3F)nc12 [compound 15, 2-(2-Fluorobenzyl)-5-phenylthiazolo[5,4-d]pyrimidin-7-amine]"
21.5 ± 5.1,1.4 ± 0.3,–,95.5 ± 1.5,1510 ± 121,–,"N#Cc1cccc(-c2nc(N)c3nc(Cc4ccccc4F)sc3n2)c1 [compound 16, 3-(7-Amino-2-(2-fluorobenzyl)thiazolo[5,4-d]pyrimidin-5-yl)benzonitrile]"
0.5 ± 0.1,–,–,456 ± 15,3240 ± 136,–,"Nc1nc(-c2cccc(O)c2)nc2sc(Cc3ccccc3F)nc12 [compound 17, 3-(7-Amino-2-(2-fluorobenzyl)thiazolo[5,4-d]pyrimidin-5-yl)phenol]"
5.7 ± 0.2,0.26 ± 0.01,0.257,50.2 ± 9.2,1690 ± 228,51 ± 12,"Cc1ccc(-c2nc(N)c3nc(Cc4ccccc4F)sc3n2)o1 [compound 19, 2-(2-Fluorobenzyl)-5-(5-methylfuran-2-yl)thiazolo[5,4-d]pyrimidin-7-amine]"
